Experimental data taken from patent publication US4757068A, “Lactams and bicyclic lactams useful as cholecystokinin antagonists” (Merck & Co., Inc., priority 1985, dated 1988).

Columns and labels:
CCK receptor [1] = assay: 125I-CCK-33 receptor binding (pancreas or brain; tissue not stated); details: 125I-CCK-33; tissue (rat pancreas or guinea pig brain) not stated; read-out: inhibition of specific 125I-CCK-33 binding, IC50
Protocol: (§1) CCK-33 was radiolabeled with ^125 I-Bolton Hunter reagent (2000 Ci/mmole) as described by Sankara et al. (J. Biol. Chem. 254: 9349-9351, 1979). Receptor binding was performed according to Innis and Snyder (Proc. Natl. Acad. Sci. 77: 6917-6921, 1980) with the minor modification of adding the additional protease inhibitors, phenylmethane sulfonyl fluoride and o-phenanthroline.
(§2) Male Sprague-Dawley rats (200-350g) were sacrificed by decapitation. The whole pancreas was dissected free of fat tissue and was homogenized in 20 volumes of ice-cold 50 mM, Tris HCl (pH 7.7 at 25° C.) with a Brinkmann Polytron PT 10. The homogenates were centrifuged at 48,000 g for 10 min. Pellets were resuspended in Tris Buffer, centrifuged as above and resuspended in 200 volumes of binding assay buffer (50 mM Tris HCl, pH 7.7 at 25° C., 5 mM dithriothriethel, 0.1 mM bacitracin, 1.2 mM phenylmethane sulfonyl fluoride, and 0.5 mM phenathroline). […] All assays were run in duplicate or triplicate. The reaction mixtures were incubated at 37° C. for 30 minutes and centrifuged in a Beckman Microfuge (4 minutes) immediately after adding 1 ml of ice-cold incubation buffer. The supernatant was aspirated and discarded, pellets were counted with a Beckman gamma 5000.
(§3) CCK-33 was radiolabeled and the binding was performed according to the description for the pancreas method with modifications according to Saito et al. (J. Neurochem., 37, 483-490 (1981)).
(§4) Male Hartley guinea pigs (300-500g) were sacrificed by decapitation and the brains were removed and placed in ice-cold 50 mM, Tris HCl plus 7.58 g/l Tritma-7.4 (pH 7.4 at 25° C.) Cerebral cortex was dissected and used as a receptor source. Each gram of fresh guinea pig brain tissue was homogenized in 10 ml of Tris/Trizma buffer with a Brinkman polytron PT-10. The homogenates were centrifuged at 42,000 g for 15 min. Pellets were resuspended in Tris Buffer, centrifuged as above and resuspended in 200 volumes of binding assay buffer (10 mM HEPES, pH 7.7 at 25° C., 5 mM MgCl2, 1 mM EGTA, 0.4% BSA (bovine serum albumin), and 0.25 mg/ml bacitracin). […] All assays were run in duplicate or triplicate. The reaction mixtures were incubated at 25° C. for 2 hours and centrifuged in a Beckman Microfuge (4 minutes) immediately after adding 1 ml of ice-cold incubation buffer. The supernatant was aspirated and discarded, pellets were counted with a Beckman gamma 5000.

CCK receptor [2] = details: various members of the cyclic nucleotide class, literature; cited from earlier work
CCK receptor [3] = molecular target: T1, CCK receptor (Rattus norvegicus, UniProt P30551); assay: 125I-CCK-33 receptor binding (pancreas or brain; tissue not stated); details: added protease inhibitors in binding buffer
T1 construct: from tissue
T1 sequence (P30551 1-444): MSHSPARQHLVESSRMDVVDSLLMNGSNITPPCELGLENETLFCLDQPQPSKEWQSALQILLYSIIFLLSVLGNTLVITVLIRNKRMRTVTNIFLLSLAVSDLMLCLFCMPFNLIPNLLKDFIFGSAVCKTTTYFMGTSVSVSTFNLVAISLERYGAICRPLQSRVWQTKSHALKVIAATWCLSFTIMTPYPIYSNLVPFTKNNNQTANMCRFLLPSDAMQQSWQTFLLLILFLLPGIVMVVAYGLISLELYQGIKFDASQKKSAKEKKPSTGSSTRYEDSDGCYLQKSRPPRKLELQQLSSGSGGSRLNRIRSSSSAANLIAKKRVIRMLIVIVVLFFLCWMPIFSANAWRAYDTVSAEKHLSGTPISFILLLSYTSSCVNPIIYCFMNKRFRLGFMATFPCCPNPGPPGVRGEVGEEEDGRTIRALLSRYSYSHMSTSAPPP
Protocol: as §1, §2, §3, §4

Structure (SMILES): CCOC(=O)C(CCc1ccccc1)NC1CCCC(c2ccccc2)N(CC(=O)OC)C1=O (single isomer, unassigned) [1-Carbomethoxymethyl-3-(1-carbethoxy-3-phenylpropyl)amino-7-phenylperhydroazepin-2-one]
- IC50 (CCK receptor [1]): 32 µM

Structure (SMILES): COC(=O)CN1C(=O)C(C)(NC(CCc2ccccc2)C(=O)OC)CCc2ccccc21 (centres unmarked) [1-Carbomethoxymethyl-3-(1-carbomethoxy-3-phenylpropyl)amino-3-methyl homodihydrocarbostyril]
- IC50 (CCK receptor [1]): 72 µM

Structure (SMILES): CCCC(=O)Nc1nc2c(ncn2[C@@H]2O[C@@H]3COP(=O)(O)O[C@H]3[C@H]2OC(=O)CCC)c(=O)[nH]1 [dibutyryl cyclic GMP]
- potency rank among cyclic nucleotide CCK antagonists (CCK receptor [2]): most potent

Structure (SMILES): c1cnc2c(c1)ccc1cccnc12 [o-phenanthroline]
- effect on the 125I-CCK receptor binding assay (CCK receptor [3]): no effect

Structure (SMILES): O=S(=O)(F)Cc1ccccc1 [phenylmethane sulfonyl fluoride]
- effect on the 125I-CCK receptor binding assay (CCK receptor [3]): no effect
